{"source": "patent US20210261495A1", "about": "“COMPOSITIONS AND METHODS OF USING ITACONIC ACID DERIVATIVES” (ERGON PHARMACEUTICALS, LLC, priority 2018, published 2021)"}
{"test_system": "C6-IRG1-9 rat glioma cells", "test": "C6-IRG1-9 rat glioma cell proliferation, CyQuant", "type": "cell-based", "settings": "various concentrations, 48 hrs", "method": "Tumor Cell Proliferation Assay. This assay was used to assess the anti-tumor properties of a therapeutic agent in vitro. In a typical proliferation assay, cells were cultured to near confluency in the appropriate media. Subsequently, the cells were trypsinized and plated onto 96-well plates at 2,000 or 5,000 cell per well. The cells were cultured for 48 to 96 hours in the presence or absence of the therapeutic agent. Cell proliferation was then determined using spectrophotometry (MTT assay, BrdU assay) or fluorimetry (Cyquant assay).\nInhibition of C6-IRG1-9 Rat Glioma cell proliferation. C6-IRG1-9 cells are rat C6 glioma cells that have been transfected to overexpress IRG1. Overexpression of IRG1 is maintained by culturing the cells in DMEM media containing 0.55 μg/mL puromycin. For the proliferation assays, the cells were plated onto a 96-well plate at a density of 2,000 cells/well. The cells were allowed to adhere overnight; they were subsequently treated with various concentrations of compounds of Formula (2) for 48 hrs. At the end of the incubation period, the number of cells is assessed using the CyQuant Cell Proliferation kit (Thermo Fisher) according to the manufacturer's instructions. The results, shown in FIG. 3, indicate that compounds of Formula (2) are able to reduce or abrogate growth of C6-IRG1-9 cells. In FIG. 3, cell proliferation is expressed as % Untreated Control, defined as: […]\nwhere t is the number of cells present in a treated well at the end of the incubation period, c is the number of cells present in an untreated well at the end of the incubation period, and s is the initial number of cells in the wells prior to initiation of treatment."}
{"compound": "CC(C)=C(CC(=O)O)C(=O)O", "note": "[(3), 2-(propan-2-ylidene)butanedioic acid]", "proliferation of C6-IRG1-9 rat glioma cells": "inhibition of proliferation"}
{"compound": "O=C(O)CC(=Cc1ccccc1)C(=O)O", "note": "[(4), 2-(phenylmethylidene)butanedioic acid]", "proliferation of C6-IRG1-9 rat glioma cells": "inhibition of proliferation"}
{"compound": "C=CCC(C(=O)O)/C(=C/c1ccc(F)cc1)C(=O)O", "note": "(stereo not shown) [(7), 2-[(4-flurophenyl)methylidene]-3-(prop-2-ene-1-yl)butanedioic acid]", "proliferation of C6-IRG1-9 rat glioma cells": "inhibition of proliferation"}
{"compound": "O=C(O)CC(=Cc1ccc(F)cc1)C(=O)O", "note": "[Compound (5), 2-[(4-fluorophenyl)methylidene]butanedioic acid]", "proliferation of C6-IRG1-9 rat glioma cells": "inhibition of proliferation"}
